Laboratory results taken from patent US11723886B2, “Targeting ocular diseases with novel APE1/Ref-1 inhibitors” (Indiana University Research and Technology Corporation, priority 2018, dated 2023).

Experiments:
[1] = system: laser-induced choroidal neovascularization
HRECs [2] = assay: TUNEL apoptosis assay in HRECs; format: cell-based, human; details: anti-proliferative doses
Method: EdU incorporation, Ki-67 Staining and TUNEL. These assays were carried out as described previously (Basavarajappa et al., PLoS One 9:e95694 (2014); Basavarajappa et al., EMBO Mol Med 9:786-801 (2017)) with the exception of using chamber slides, not coverslips. Briefly, cells (30,000 per well) were seeded on 8-well chamber slides coated with attachment factors and allowed to attach overnight. Cells were treated with the indicated compound concentrations for 17 hours (overnight). To assay proliferation, cells were incubated with EdU in complete media for 8 hours at 37° C. Cells were then fixed in 4% paraformaldehyde for 20 minutes and permeabilized using 0.25% Triton X-100 prepared in PBS. Cells were incubated with a rabbit-specific monoclonal antibody against Ki-67 (D3B5) (#9129; Cell Signaling, Danvers, Mass.) (1:400) overnight at 4° C. Secondary antibody was Alexa Fluor goat anti-rabbit 488 (A11034; Invitrogen, Carlsbad, Calif.) with DAPI counter-stain for nuclear staining. Proliferating cells that incorporated EdU were detected using the Click-iT EdU Imaging kit (Invitrogen, Carlsbad, Calif.). […] The cells were imaged using a Zeiss AxioImager D2 microscope or an LSM 700 confocal microscope and the percentage of positive cells was counted on three low-power (for TUNEL) or high-power (for Ki-67 and EdU) fields per well using ImageJ software.

HRECs [3] = assay: Matrigel tube formation assay, HRECs; format: cell-based, human; details: mid nanomolar concentrations, vs control
Method: In vitro Matrigel tube formation assay. The ability of HRECs and Rf/6a cells to form tubes in vitro was monitored as described before (Basavarajappa et al., PLoS One 9:e95694 (2014); Basavarajappa et al., EMBO Mol Med 9:786-801 (2017)). Briefly, cells were treated with the indicated concentrations of APX2009 or APX2014 compounds or DMSO for 48 hours and then 1.5×10^4 cells in 100 μL of growth medium containing DMSO or APX compounds were added to each well of a 96-well plate that was pre-coated with 50 μL of Matrigel basement membrane (DMSO final concentration=1%). Digital photographs of each well at different time points were taken to measure the in vitro tube formation using the Angiogenesis Analyzer plugin in ImageJ software (v.1.48; http://image.bio.methods.free.fr/ImageJ/?Angiogenesis-Analyzer-for-ImageJ.html).

NF-κB p65 = NF-κB p65 nuclear translocation assay in TNF-α stimulated HRECs; format: cell-based, human; details: 10 ng/ml TNF-α
Method: NF-κB p65 nuclear translocation assay. The NF-κB nuclear translocation assay was performed by seeding 30,000 HRECs/well on an 8-well chamber slide coated with attachment factors. The cells were grown in EGM-2 medium overnight before treating with indicated concentrations of APX2009 and APX2014, or 10 μM BAY 11-7082 (Sigma, St. Louis, Mo.) as a positive control NF-κB inhibitor. After 17 hours incubation, the media was replaced with EBM-2 (minimal medium) with indicated concentrations of compound or DMSO for 1 hour. The cells were then stimulated with 10 ng/ml TNF-α in EBM-2 for 20 minutes at 37° C. to activate NF-κB. Cells were then fixed in 4% paraformaldehyde and permeabilized using 0.5% Triton X-100 solution prepared in PBS. The cells were incubated with a monoclonal antibody against NF-κB p65 (sc-8008; Santa Cruz, Santa Cruz, Calif.) (1:50) overnight at 4° C., followed by Alexafluor 555 goat anti-mouse secondary antibody (1:2000) for one hour. The cells were counter-stained with Hoechst 33342 for nuclear staining and then mounted using Everbrite hardset mounting medium. The cells were imaged using a Zeiss AxioImager D2 microscope.

Rf/6a cells = assay: Scratch wound cell migration assay, Rf/6a; format: cell-based, macaque
Method: In vitro cell migration assay. Endothelial cell migration was monitored as described before (Basavarajappa et al., PLoS One 9:e95694 (2014); Basavarajappa et al., EMBO Mol Med 9:786-801 (2017)). Briefly, HRECs and Rf/6a were grown until confluency in 12-well plates. Using a sterile 10-μL micropipette tip, a scratch wound was made across the center of each well and fresh complete media containing DMSO or different concentrations of APX2009 or APX2014 compounds were added to the wells (DMSO final concentration=1%). Wells were imaged via digital brightfield microscopy at different time points, and the number of migrated cells into the scratched area was manually counted.

[4] = system: murine choroidal explants; assay: Ex vivo choroidal sprouting assay; format: cell-based, mouse; details: for reduction of choroidal sprouting compared to control: 48 hours
Description: Animals. All animal experiments were approved by the Indiana University School of Medicine Institutional Animal Care and Use Committee and followed the guidelines of the Association for Research in Vision and Ophthalmology Statement for the Use of Animals in Ophthalmic and Visual Research. Wild-type female C57BL/6 mice, 6-8 weeks of age, were purchased from Envigo (Indianapolis, Ind.; for choroidal sprouting experiments) or Jackson Laboratory (Bar Harbor, Me.; for L-CNV) and housed under standard conditions (Wenzel et al., Mol Vis 21:515-522 (2015)). Mice were anesthetized for all procedures by intraperitoneal injections of 90 mg/kg ketamine hydrochloride and 5 mg/kg xylazine, with intraperitoneal atipamezole reversal (1 mg/kg). Treatments were randomly assigned by cage.
Choroidal sprouting assay. Ex vivo Choroidal sprouting was assessed as described previously (Sulaiman et al., Sci Rep 6:25509 (2016); Basavarajappa et al., EMBO Mol Med 9:786-801 (2017)). Briefly, choroid-sclera was dissected from 7 to 8 week old mouse eyes and pieces were embedded in Matrigel (growth factor reduced) and grown in EGM-2 medium containing antibiotics for 72 hours to allow sprouting to initiate. The indicated concentrations of APX2009 and APX2014 compounds (in DMSO, final DMSO concentration 0.5 and 0.2%, respectively) were added and growth allowed to proceed for 48 hours Images were taken and growth was quantified by measuring the distance from the edge of the choroidal piece to the growth front in four directions per sample using ImageJ software.

SMILES | fluorescein leakage in lesions (fluorescein angiography) ([1]; 25 mg/kg i.p., Day 14) | intraocular or systemic toxicity in vivo ([1]; i.p. dosing in L-CNV mice) | effect on L-CNV ([1]; i.p., 12.5 mg/kg twice daily for two weeks) | L-CNV on systemic administration (summary statement) [1] | apoptosis by TUNEL (HRECs [2]) | ability to form tubes, HRECs (HRECs [3]) | translocation of p65 into the nucleus in response to TNF-α (NF-κB p65) | cell migration in scratch wound assay, Rf/6a (Rf/6a cells) | reduction of choroidal sprouting compared to control ([4]; at 10 μM) | concentrations inhibiting choroidal sprouting ex vivo [4] | reduction of choroidal sprouting compared to control ([4]; at 1 μM (highest concentration tested))
CCC/C(=C\C1=C(OC)C(=O)c2ccccc2C1=O)C(=O)N(CC)CC [APX2009, (2E)-2-[(3-methoxy-1,4-dioxo-1,4-dihydronaphthalen-2-yl)methylidene]-N,N-diethylpentanamide] | qualitatively less fluorescein leakage | not observed obvious intraocular or systemic toxicity | did not reduce L-CNV | can attenuate L-CNV | neither compound induced apoptosis | significantly reduced | dose-dependently attenuated | significantly inhibited | ~70% | low micromolar | 
CCC/C(=C\C1=C(OC)C(=O)c2ccccc2C1=O)C(=O)NOC [APX2014, (2E)-2-[(3-methoxy-1,4-dioxo-1,4-dihydronapthalen-2-yl)methylidene]-N-methoxypentanamide] |  |  |  | can attenuate L-CNV | neither compound induced apoptosis | significantly reduced | dose-dependently attenuated | significantly inhibited |  | high nanomolar | ~60%
